Data reported in patent publication US11668702B2, “Regulation of fungal fruiting body development” (The Chinese University of Hong Kong, priority 2017, dated 2023).
Entries after “also recorded” stand apart in the source; their conditions may differ.

How the values were obtained:
C. cinerea [1] = experiment: C. cinerea fruiting body development, solution spread on YMG agar surface before inoculation (Example 5); format: cell-based, Coprinopsis cinerea
Description: FIG. 9: Effect on C. cinerea fruiting body development by GSK3 inhibitor-LiCl at different concentration. Water or LiCl solution was spread on the surface of YMG agar, before inoculation. After 6-days all dark incubation in 37° C., the plates were transferred to 25° C. with 12-hours light and 12-hours dark cycle (light/dark cycle) for 5-days incubation. […] Initials and hyphal knots formed on the plates treated with 0.75 g/L and 1.5 g/L LiCl respectively.
FIG. 10: Effect on C. cinerea fruiting body development by GSK3 inhibitor-CHIR-99021 HCl at different concentration. Water or CHIR-99021 HCl solution was spread on the surface of YMG agar, before inoculation. After the mycelium reached the edge of plates, the plates were transferred to 25° C. with light/dark cycle for 6-days incubation.
FIG. 11: Effect on C. cinerea fruiting body development by GSK3 activator-Cisplatin at different concentration. Water or Cisplatin solution was spread on the surface of YMG agar, before inoculation. After the mycelium reached the edge of plates, the plates were transferred to 25° C. with light/dark cycle. […] Young fruiting body developed on the control YMG plates treated with water.
Two GSK3 inhibitors (LiCl and CHIR-99021 HCl) and one GSK3 activator (Cisplatin) were tested in Coprinopsis cinerea, and one GSK3 inhibitor (LiCl) was tested in Pleurotus djamor (commonly known as the pink oyster mushroom). Belonging to the same order Agaricales, these two tested mushroom species are of two different families, Psathyrellaceae and Pleurotaceae, respectively.
Water or LiCl solution was spread on the surface of YMG agar before inoculation of C. cinerea. After 6-days all dark incubation in 37° C., the plates were transferred to 25° C. with 12-hours light and 12-hours dark cycle (light/dark cycle) for 5-days incubation. […] Initials and hyphal knots were formed on the plates treated with 0.75 g/L and 1.5 g/L LiCl respectively.
Water or CHIR-99021 HCl solution was spread on the surface of YMG agar before inoculation of C. cinerea. After the mycelium reached the edge of plates, the plates were transferred to 25° C. with light/dark cycle for 6-days incubation.
Water or Cisplatin solution was spread on the surface of YMG agar before C. cinerea inoculation. After the mycelium reached the edge of plates, the plates were transferred to 25° C. with light/dark cycle. […] Young fruiting body developed on the control YMG plates treated with water.

C. cinerea [2] = experiment: C. cinerea on YMG agar treated with CHIR-99021 HCl (Example 2); format: cell-based, Coprinopsis cinerea
Description: Another GSK-3 inhibitor was used to confirm inhibition of LiCl on GSK-3. C. cinerea was cultivated on YMG agar and treated with water for control group and 1 uM, 100 uM and 500 uM of CHIR-99021 HCl for experimental group.

C. cinerea [3] = experiment: Mycelial growth rate of LiCl treated C. cinerea on YMG agar; format: cell-based, Coprinopsis cinerea
Description: FIG. 3: Mycelial growth of C. cinerea with different doses of LiCl, biological triplicates were used for mean calculation.
The mycelial growth rate was measured for the LiCl treated C. cinerea. Biological triplicates were cultivated on YMG agar plates at 37° C. in darkness, treated with different doses of LiCl. The mycelium growth was recorded for 4 days.

C. cinerea [4] = experiment: LiCl added at different developmental stages of C. cinerea; format: cell-based, Coprinopsis cinerea
Description: FIG. 4: The development of C. cinerea treated with 0.1 ml of 3 g/L LiCl at different stage.
FIG. 5: Life cycle of the mushroom-forming fungi, and the sensitive windows to the GSK-3 inhibitors (stages in grey). […] These stages are sensitive windows.
The effect of LiCl at different developmental stages of C. cinerea were tested. 0.1 ml of 3 g/L LiCl were added to the agar plate.

[5] = tested on: GSK-3 and its target genes; experiment: Quantitative real-time PCR of GSK-3 and its target genes under LiCl treatment; format: cell-based, Coprinopsis cinerea
Description: FIG. 6: The gene expression levels are indicated by the abundance of segments on the cDNA, by real-time PCR. […] Glycogen synthase (CC1G_01973); GSK-3 protein kinase (CC1G_03802); eukaryotic translation initiation factor 1 (CC1G_03881); Uncharacterized protein with Ricin B-type lectin domain (CC1G_05298); Translation initiation factor eIF2 gamma subunit (CC1G_09429).
The expression levels of targets genes of GSK-3 were measured to explore the mechanism of LiCl. To characterize the gene expression profile changes, quantitative real-time PCR analysis was performed. the kinase and its substrates by Orthologue searching were selected. A total of 83 GSK-3 substrates reported in human and mouse were mapped to the C. cinerea genome, and 52 orthologues were identified. Among them, CC1G_01973, CC1G_03881, and CC1G_09429 were selected for real-time PCR analysis. Samples treated by different doses of LiCl were frozen and homogenized in liquid nitrogen to extract total RNAs. […] Decreased eIF1 gene expression supports that LiCl block the fruiting through inhibiting GSK-3 activity in initiating the translation of key protein. Binding of eIF1 to 40S ribosome is key to maintain an open conformation on 40S ribosomal subunit to initiate translation (Passmore et al. 2007). Low level of eIF1 was also found to lower mRNA translation in Saccharomyces cerevisiae (You et al. 2010).

Pleurotus djamor [6] = experiment: Self-healing ability and stability of mycelium blocks; settings: 2 g/L LiCl in substrate; following 30 days
Description: FIG. 8: Comparison of the self-healing ability between the mycelium blocks treated by heating and LiCl. The two group of mycelium blocks (e.g., Pleurotus djamor blocks) were broken in the middle. In each group, 3 blocks were spread with the solution of YMG broth and the other 3 blocks with ddH2O on the broken sites. The two parts of one block were incubated together for 3 days.
The self-healing ability and stability of the living material is tested by comparison of the self-healing ability between the mycelium blocks treated by heating and LiCl. To prepare the demo mycelium blocks, water (as in group “Heat”) or 2 g/L LiCl water solution (as in group “Lithium”), sawdust, wheat bran and calcium carbonate were mixed as substrate and autoclaved the substrate. Then the Pleurotus djamor was inoculated to the substrate, and incubated under 27° C. continuous dark for 7 days. Then 30 g of the mixture of mycelium and substrate were transferred into molds of block, with same volume and pressure. The blocks were incubated under 27° C. continuous dark for another 7 days. Then the blocks of “Heat” group were dried by oven, and the block of “Lithium” group were dried by dehumidifier, to the same mass of the “Heat” group.
The two group of mycelium blocks were broken in the middle. In each group, 3 blocks were spread with the solution of YMG broth and the other 3 blocks with ddH2O on the broken sites. […]

Pleurotus djamor [7] = experiment: Pleurotus djamor fruiting body development, LiCl in YMG agar; format: cell-based; settings: 2 g/L LiCl in YMG agar; 10 days dark at 27° C., 10 days light/dark cycle at 25° C.
Description: FIG. 12: Effect on Pleurotus djamor fruiting body development by GSK3 inhibitor-LiCl at different concentration. LiCl was added to YMG agar medium before autoclave. After 10-days all dark incubation in 27° C., the plates were transferred to 25° C. with 12-hours light and 12-hours dark cycle (light/dark cycle) for 10-days incubation. Mature fruiting bodies developed on the control plates.
LiCl was added to YMG agar medium before autoclave. After 10-days all dark incubation in 27° C., the plates were transferred to 25° C. with 12-hours light and 12-hours dark cycle (light/dark cycle) for 10-days incubation. Mature fruiting bodies developed on the control plates.

C. cinerea [8] = experiment: LiCl clearance and fruiting body formation (Example 3); format: cell-based, Coprinopsis cinerea; settings: washing mycelium and substrate with ddH2O or transfer onto clean substrate
Source text: The LiCl inhibition of C. cinerea mycelium can be relieved by removing LiCl or diluting the concentration of LiCl, for example, by washing the mycelium and substrate with ddH2O, or by transferring the mycelium onto a clean substrate.

[9] = cited from earlier work
C. cinerea [10] = experiment: Fruiting body development of C. cinerea on YMG agar with LiCl in or under the agar
[11] = during spa use (PubChem Compound Database); cited from earlier work
Pleurotus eryngii = settings: cited from earlier work
[12] = different doses of LiCl, real-time PCR

Cc1cnc(-c2cnc(NCCNc3ccc(C#N)cn3)nc2-c2ccc(Cl)cc2Cl)[nH]1.Cl.Cl.Cl [CHIR-99021 HCl, 6-[[2-[[4-(2,4-Dichlorophenyl)-5-(5-methyl-1H-imidazol-2-yl)-2-pyrimidinyl]amino]ethyl]amino]-3-pyridinecarbonitrile trihydrochloride]
Fruiting body development stage reached (C. cinerea [1]; 1 μM CHIR-99021 HCl, 6 days light/dark cycle at 25° C.): Young fruiting bodies developed
Fruiting body development stage reached (C. cinerea [1]; 100 μM CHIR-99021 HCl, 6 days light/dark cycle at 25° C.): developed primordium
Fruiting body development stage reached (C. cinerea [1]; 500 μM CHIR-99021 HCl, 6 days light/dark cycle at 25° C., trihydrochloride): remained arrested in mycelium stage
Fruiting body development (C. cinerea [2]; 1 uM CHIR-99021 HCl): developed initials
Fruiting body development (C. cinerea [2]; 100 uM CHIR-99021 HCl): developed initials
Fruiting body formation (C. cinerea [2]; concentration not given): inhibits fruiting body formation
Fruiting body development (C. cinerea [2]; higher CHIR-99021 HCl concentration (500 uM group)): inhibited fruiting

N.N.[Cl][Pt][Cl] [Cisplatin, cis-diamminedichloridoplatinum(II)]
Fruiting body development stage reached (C. cinerea [1]; 1 ml saturated Cisplatin, 6 days light/dark cycle at 25° C.): had fruiting body and began autolysis

[Cl-].[Li+] [LiCl, Lithium chloride]
Effect on Mycelium growth (C. cinerea [3]; 1.5 g/L LiCl in agar): higher than control; also recorded: Acceleration
Effect on Mycelium growth (C. cinerea [3]; 3 g/L LiCl in agar): higher than control; also recorded: acceleration in mycelium growth rate
Effect on Mycelium growth (C. cinerea [3]; 6 g/L LiCl in agar): inhibit the growth of mycelium; also recorded: Retarded
Further development after LiCl addition (C. cinerea [4]; 0.1 ml of 3 g/L LiCl added at initial): led to the arrest of their development; also recorded: led to inhibition on further development; also recorded: resulted in arrestment in fruiting body development
Further development after LiCl addition (C. cinerea [4]; 0.1 ml of 3 g/L LiCl added at stage-1 primordium): led to the arrest of their development; also recorded: led to inhibition on further development; also recorded: resulted in arrestment in fruiting body development
Further development after LiCl addition (C. cinerea [4]; 0.1 ml of 3 g/L LiCl added at stage-2 primordium): could continue to develop into fruiting bodies; also recorded: cannot inhibit the fruiting body development
Further development after LiCl addition (C. cinerea [4]; 0.1 ml of 3 g/L LiCl added at young fruiting body): could continue to develop into fruiting bodies; also recorded: cannot inhibit the fruiting body development
Further development after LiCl addition (C. cinerea [4]; LiCl intervention at hyphal knot): resulted in arrestment in fruiting body development
Further development after LiCl addition (C. cinerea [4]; LiCl intervention at mycelium): resulted in arrestment in fruiting body development
GSK-3 gene expression ([5]; 3 g/L LiCl mixed in the substrate): general decrease in GSK-3 gene expression
Expression level of GSK-3 gene and selected GSK-3 target genes [5, 12]: could regulate the expression; also recorded: change the expression level
eIF1 gene expression [5, 12]: decreased with increase of LiCl concentration
Initials and fruiting bodies on mycelium blocks (Pleurotus djamor [6]): clear of initials and fruiting bodies
Fruiting body development stage reached (C. cinerea [1]; 0.375 g/L LiCl, 5 days light/dark cycle at 25° C.): Primordium were formed
Fruiting body development stage reached (C. cinerea [1]; 0.75 g/L LiCl, 5 days light/dark cycle at 25° C.): Initials
Fruiting body development stage reached (C. cinerea [1]; 1.5 g/L LiCl, 5 days light/dark cycle at 25° C.): hyphal knots
Fruiting body development stage reached (C. cinerea [1]; 3 g/L LiCl, 5 days light/dark cycle at 25° C.): arrested in mycelium stage
Mycelium growth on plate (C. cinerea [1]; 6 g/L LiCl): stopped before reaching the edge of plates
Fruiting body development stage reached (C. cinerea [1]; 6 g/L LiCl, 5 days light/dark cycle at 25° C.): arrested in mycelium stage
Fruiting body development (Pleurotus djamor [7]): failed to develop fruiting body
Fruiting after removing or diluting LiCl (C. cinerea [8]): fruiting bodies develops again
Solubility [9]: soluble in water, ethanol, acetone, pyridine and nitrobenzene
Effect on Fruiting body development (C. cinerea [10]; 1.5 g/L LiCl in agar): No
Effect on Fruiting body development (C. cinerea [10]; 1.5 g/L LiCl under agar (concentration calculated with volume of sum of agar and H2O), 8 days): produced only a few initials and stage 1 primordia; also recorded: Retarded
Effect on Fruiting body development (C. cinerea [10]; 3 g/L LiCl in agar): absence of fruiting body and No
Effect on Fruiting body development (C. cinerea [10]; 3 g/L LiCl under agar (concentration calculated with volume of sum of agar and H2O)): No
Effect on Fruiting body development (C. cinerea [10]; 6 g/L LiCl in agar): No
Effect on Fruiting body development (C. cinerea [10]; 6 g/L LiCl under agar (concentration calculated with volume of sum of agar and H2O)): No
Fruiting body initiation (C. cinerea [10]; LiCl concentration higher than 1.5 g/L, in the following 30 days): No initiation was observed
Fruiting body initiation, dose dependence (C. cinerea [10]; LiCl in agar or under agar): inhibited the fruiting body initiation in a dose-dependent manner

[Li] [Lithium]
Skin absorption [11]: not absorbed through the skin

O=C([O-])[O-].[Li+].[Li+] [lithium carbonate]
Lithium carbonate concentration at which fruiting body cannot form (Pleurotus eryngii): higher than 0.75 mM
